The values below come from PMC4467398, “Preclinical antitumor activity of ST7612AA1: a new oral thiol-based histone deacetylase (HDAC) inhibitor” (Oncotarget, 2014).

Molecules are shown by their SMILES.

Common to all, as to assay type: cell-based
For test [1], the system named is Acute myeloid leukemia MV4;11. Kind of test: In vitro proliferation assay (sulphorodamine B). The note with it: Homo sapiens, 72 h, mean ± S.E.M.
For the next test, the system named is NSCLC NCI-H1975. Kind of test: In vitro proliferation assay (sulphorodamine B). The note with it: Homo sapiens, 72 h, mean ± S.E.M.
Test [2] has as its system Splenic marginal zone lymphoma VL51. Kind of test: In vitro proliferation assay (MTT). The note with it: Homo sapiens, 72 h, mean ± S.E.M. On the procedure:
(§1) Anti-proliferative activity was first assessed on a panel of cell lines derived from solid tumors and hematological cancers and then on a large panel of cell lines derived from mature B-cell lymphomas. […] Lymphoma cells were seeded in 96-wells tissue culture plates in complete medium and were exposed to increasing concentrations of ST7612AA1 for 48 or 72 h; the anti-proliferative activity was assessed using 3-(4,5-dimethylthiazol-2-yl)-2,5-diphenyltetrazolium bromide (MTT). The drug potency was evaluated by means of the “ALLFIT” computer program and defined as IC50 (drug concentration required for 50% inhibition of cell survival).

For the next test, the system named is GCB-DLBCL OCI-Ly8. Kind of test: In vitro proliferation assay (MTT). The note with it: Homo sapiens, 72 h, mean ± S.E.M. On the procedure: as §1
A further test has as its system GCB-DLBCL Karpas422. Kind of test: In vitro proliferation assay (MTT). The note with it: Homo sapiens, KARPAS-422, 72 h, mean ± S.E.M. The procedure: as §1
Another test has as its system GCB-DLBCL SUDHL-6. As to the kind of experiment: In vitro proliferation assay (MTT). The note with it: Homo sapiens, SU-DHL-6, 72 h, mean ± S.E.M. The procedure:
as §1

The next test deals with GCB-DLBCL OCI-Ly7. As to the kind of experiment: In vitro proliferation assay (MTT). The note with it: Homo sapiens, 72 h, mean ± S.E.M. On the procedure:
as §1

A further test deals with GCB-DLBCL SUDHL-4. Kind of test: In vitro proliferation assay (MTT). The note with it: Homo sapiens, SU-DHL-4, 72 h, mean ± S.E.M. On the procedure: as §1
In a further test the test system is GCB-DLBCL VAL. Kind of test: In vitro proliferation assay (MTT). The note with it: Homo sapiens, 72 h, mean ± S.E.M. The procedure:
as §1

Test [3] relates to Mantle cell lymphoma MAVER1. As to the kind of experiment: In vitro proliferation assay (MTT). The note with it: Homo sapiens, 72 h, mean ± S.E.M. The procedure:
as §1

In test [4] the test system is Splenic marginal zone lymphoma SSK41. As to the kind of experiment: In vitro proliferation assay (MTT). The note with it: Homo sapiens, 72 h, mean ± S.E.M. On the procedure:
as §1

The test system of a further test is T-cell lymphoma HUT78. Kind of test: In vitro proliferation assay (MTT). The note with it: Homo sapiens, 72 h, mean ± S.E.M. On the procedure: as §1
Test [5] has as its system Mantle cell lymphoma Jeko-1. As to the kind of experiment: In vitro proliferation assay (MTT). The note with it: Homo sapiens, 72 h, mean ± S.E.M. On the procedure:
as §1

Test [6] concerns Splenic marginal zone lymphoma K1718. As to the kind of experiment: In vitro proliferation assay (MTT). The note with it: Homo sapiens, 72 h, mean ± S.E.M. The procedure:
as §1

For a further test, the system named is ABC-DLBCL TMD8. As to the kind of experiment: In vitro proliferation assay (MTT). The note with it: Homo sapiens, 72 h, mean ± S.E.M. On the procedure:
as §1

One may read the IC50 as the concentration that inhibits the measured activity by half. Read a low IC50 as greater potency. As for `CC(=O)SCCCCC[C@H](NC(=O)[C@H]1CCC(=O)N1)C(=O)Nc1ccccc1` [ST7612AA1], the IC50 in [1] is 190 ± 20 nM; with NSCLC NCI-H1975, 500 nM; in test [2], 120 nM; in the test on GCB-DLBCL OCI-Ly8 it was 240 nM; with GCB-DLBCL Karpas422 it was 2660 nM; in the test on GCB-DLBCL SUDHL-6 it was 630 nM. Besides, the IC50 in the test with GCB-DLBCL OCI-Ly7 is 560 nM; in the test on GCB-DLBCL SUDHL-4, 980 nM; in the test with GCB-DLBCL VAL, 2360 nM; in [3] it was 390 nM; in test [4] it was 260 nM; in the test on T-cell lymphoma HUT78, 480 ± 20 nM. In addition, the IC50 stood at 250 ± 10 nM in test [5], 100 ± 10 nM in test [6] and 100 ± 30 nM with ABC-DLBCL TMD8.
